Reference: PubChem BioAssay (NCI)
Where “and” joins values, the source holds several entries; their conditions need not be identical. Equal entries are not always repeated.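 Cells were grown in 96-well plates and exposed to each compound for 48 hours at five concentrations; endpoints were interpolated linearly between bracketing concentrations, or set to the highest concentration if not reached. GI50 marks 50% less growth. TGI denotes the concentration required for complete inhibition of growth.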

Legend:
Assay in all cases: NCI tumour cell line growth inhibition, 48 h
[1] = system: A498 renal
[2] = system: ACHN renal
[3] = system: CAKI-1 renal
[4] = system: HCT-116 colon
[5] = system: HT29 colon
[6] = system: MDA-MB-231 breast
[7] = system: SK-MEL-2 melanoma
[8] = system: SNB-19 CNS
[9] = system: SR leukemia
[10] = system: U251 CNS

| SMILES | GI50 [1] | TGI [1] | GI50 [2] [µM] | TGI [2] | GI50 [3] | TGI [3] | GI50 [4] | TGI [4] | GI50 [5] | TGI [5] | GI50 [6] [µM] | TGI [6] | GI50 [7] | TGI [7] | GI50 [8] | TGI [8] | GI50 [9] [µM] | TGI [9] | GI50 [10] | TGI [10] |
| --- | --- | --- | --- | --- | --- | --- | --- | --- | --- | --- | --- | --- | --- | --- | --- | --- | --- | --- | --- | --- |
| COc1cc2cc(Oc3ccc(NC(=O)c4cccc(C(F)(F)F)c4)cc3)c(C)nc2cc1OC | 1.78 µM | 65 µM | 3.6 | > 100 µM | 2.75 µM | > 100 µM | 3.22 µM | > 100 µM | 6.65 µM | > 100 µM | 3.38 | 46.6 µM | 5.11 µM | > 100 µM | 8.09 µM | > 100 µM | 3.25 | > 100 µM | 4.44 µM | > 100 µM |
| N/C(=N\OC(=O)c1ccccc1)C(C(=O)NOC(=O)c1ccccc1)C1CCCCC1 (stereo unspecified) | 14.8 µM | 28.7 µM | 3.04 | 10.9 µM | 0.5 µM | 1.73 µM | 3.45 µM | 13 µM | 16.1 µM | 35.2 µM | 18.1 | 70.9 µM | 12.5 µM | 26.6 µM | 15.4 µM | 39.1 µM | 1.99 | 4.99 µM | 1.78 µM | 3.87 µM |
| CC1=C(C(=O)NC2CCCCC2)CC(C(=O)NC2CCCCC2)=C(C)N1 | – | > 100 µM | – | > 100 µM | – | > 100 µM | – | > 100 µM | – | – | – | > 100 µM | – | > 100 µM | – | > 100 µM | – | > 100 µM | – | > 100 µM |
| COC(=O)c1ccc2c(c1)C(NC(C)=O)CCc1cc(OC)c(OC)c(OC)c1-2 (stereo unspecified) | – | 4.27 µM | – | > 100 µM | – | 77.4 µM | – | 0.391 µM | – | 1.28 µM | – | > 100 µM | – | 6.58 µM | – | > 86.9 µM | – | 2.68 µM | – | 16.5 µM |
| CC1(C)N=C(N)N=C(N)N1c1ccc(CCc2ccccc2)c(Cl)c1 | 0.788 µM | 15 µM | 1.97 | > 100 µM | 3.99 µM | > 48.8 µM | 0.0347 µM | 14 µM | 0.0531 µM | 12.7 µM | 1.09 | 19.9 µM | 1.01 µM | 17.5 µM | 0.172 µM | 15.4 µM | 0.0562 | 18.7 µM | 0.0427 µM | 13 µM |
| COC(=O)C1=C(OC(=O)c2ccc(Cl)cc2)C(C(=O)OC)[C@@]2(O)[C@@H](C(=O)OC)C(c3ccccc3C(F)(F)F)C[C@@H]1[C@@H]2C(=O)OC (stereo partly specified) | 1.76 µM | 7.25 µM | 3.19 | > 100 µM | 13.9 µM | 36.1 µM | 2.92 µM | 11.4 µM | 3.54 µM | > 100 µM | 2.07 | 6.19 µM | 15.5 µM | 33.9 µM | 6.44 µM | > 100 µM | 3.94 | > 100 µM | 3.26 µM | 21.4 µM |
| CSc1ccc(/C=C2\CNC/C(=C\c3ccc(SC)cc3)C2=O)cc1 | 35.2 µM and 33.2 µg/mL | 159 µM and 118 µg/mL | – | > 371 µM | 90.3 µg/mL | 150 µg/mL | 31.4 µg/mL | > 371 µM and 150 µg/mL | 150 µg/mL | > 117 µM and 150 µg/mL | – | 362 µM | 150 µg/mL | > 371 µM and 150 µg/mL | 50.9 µM and 23.9 µg/mL | > 127 µM and 89.4 µg/mL | 23.3 | 67.8 µM and > 190 µM | 34.8 µM and 21.7 µg/mL | 83.7 µM and 65.4 µg/mL |
| C[C@]12CC[C@@H]3c4ccc(O)c([N+](=O)[O-])c4CC[C@H]3[C@@H]1CC[C@@H]2NS(=O)(=O)c1ccc(C(F)(F)F)cc1 | 1.07 µM | 3.48 µM | 2.17 | 6.78 µM | 2.17 µM | 6.24 µM | 1.6 µM | 2.99 µM | 2.03 µM | 3.71 µM | 1.49 | 2.93 µM | 2.1 µM | 4.18 µM | 2.79 µM | 11.2 µM | 1.65 | 4.14 µM | 1.56 µM | 3.13 µM |
| CC(O)CNC1=CC(=O)C(=O)c2ccccc21 (stereo unspecified) | – | 62.9 µM | – | 35.6 µM | – | 33.5 µM | – | 33.9 µM | – | – | – | 73.6 µM | – | 32.9 µM | – | 32 µM | – | > 100 µM | – | 30.6 µM |
| Cc1cccc(NC(=O)c2sc3nc4c(cc3c2N)CCCC4)c1C | 0.232 µM | 0.981 µM | 0.68 | > 100 µM | 0.491 µM | > 100 µM | 0.435 µM | > 100 µM | 0.341 µM | > 100 µM | 1.6 | > 100 µM | 0.515 µM | > 100 µM | 0.508 µM | > 100 µM | 0.276 | > 100 µM | 0.416 µM | > 100 µM |
| CCc1nc(N)nc(N)c1-c1ccc([N+](=O)[O-])c(NCc2ccccc2)c1 | – | 32.9 µM | – | 30.5 µM | – | 29.3 µM | – | > 47.3 µM | – | 23.2 µM | – | 38.1 µM | – | 50.2 µM | – | 38.9 µM | – | 31.1 µM | – | 30.1 µM |
| CNC(=O)Nc1ccc(-c2nc(N3CCOCC3)nc3c2cnn3C2CCOCC2)cc1 | < 0.0218 µM | 0.148 µM | 0.225 | 1.74 µM | 0.227 µM | 2.62 µM | 0.422 µM | > 100 µM | 0.295 µM | > 100 µM | 0.292 | > 51.9 µM | 0.382 µM | 3.56 µM | 0.396 µM | > 100 µM | 0.239 | > 19.8 µM | 0.258 µM | > 38.6 µM |
| Clc1ccc(COC(Cn2ccnc2)c2ccc(Cl)cc2Cl)cc1 (stereo unspecified) | 1.23 µM | 8.22 µM and 27.8 µM and 24.2 µM | 3.59 | 12.6 µM and 29.8 µM and 25.9 µM | 2.05 µM | 9.58 µM and 24.9 µM and 23.6 µM | 1.42 µM | 3.1 µM and 21.1 µM and 20.2 µM | 1.95 µM | 5.22 µM and 22.4 µM and 21.5 µM | 1.04 | 8.48 µM and 26.9 µM and 26 µM | 2.32 µM | 5.08 µM and 28.9 µM and 28.8 µM | 3.35 µM | 17.9 µM and 32.3 µM and 30.5 µM | 2.79 | 10.6 µM and 21.6 µM and 14.7 µM | 2.04 µM | 7.46 µM and 28.6 µM and 26 µM |
| CC(CO)[C@H]1OC(=O)C=C2[C@@]13O[C@@H]3[C@H]1OC(=O)[C@@]3(C)[C@H]4O[C@H]4C[C@@]2(C)[C@@H]13 (stereo partly specified) | – | > 29.4 µM | – | 4 µM | – | 8.25 µM | – | > 28 µM | – | 20.7 µM | – | > 29.6 µM | – | 11.1 µM | – | > 30.8 µM | – | 0.982 µM | – | > 100 µM |
